Source: the NIST ThermoML archive (doi:10.1016/j.fluid.2013.09.056)
Numbers after ± are expanded uncertainties.

Settings: Liquid, Closed cell (Static) method

FCC(F)(F)F [1,1,1,2-tetrafluoroethane]
vapor or sublimation pressure (283.15 K): 414 ± 7 kPa | vapor or sublimation pressure (293.15 K): 571.5 ± 7 kPa | vapor or sublimation pressure (303.15 K): 767 ± 7.1 kPa | vapor or sublimation pressure (313.15 K): 1013 ± 7.2 kPa | vapor or sublimation pressure (323.15 K): 1314.7 ± 7.3 kPa

CC(F)(F)F [1,1,1-trifluoroethane]
vapor or sublimation pressure (283.15 K): 838.6 ± 7.1 kPa | vapor or sublimation pressure (293.15 K): 1107.9 ± 7.2 kPa | vapor or sublimation pressure (303.15 K): 1435.2 ± 7.3 kPa | vapor or sublimation pressure (313.15 K): 1834 ± 7.5 kPa | vapor or sublimation pressure (323.15 K): 2309.7 ± 7.8 kPa

C=C(F)C(F)(F)F [2,3,3,3-tetrafluoro-1-propene]
vapor or sublimation pressure (283.15 K): 436.5 ± 7 kPa | vapor or sublimation pressure (293.15 K): 591 ± 7.1 kPa | vapor or sublimation pressure (303.15 K): 780.5 ± 7.1 kPa | vapor or sublimation pressure (313.15 K): 1015.6 ± 7.2 kPa | vapor or sublimation pressure (323.15 K): 1300.7 ± 7.2 kPa

FC(C(F)(F)F)C(F)(F)F [1,1,1,2,3,3,3-heptafluoropropane]
vapor or sublimation pressure (283.15 K): 278.9 ± 7 kPa | vapor or sublimation pressure (293.15 K): 388 ± 7 kPa | vapor or sublimation pressure (303.15 K): 524.5 ± 7 kPa | vapor or sublimation pressure (313.15 K): 699 ± 7.1 kPa | vapor or sublimation pressure (323.15 K): 912.4 ± 7.1 kPa
